# Assay results taken from patent publication US20230159484A1, “FLUORESCENT DYES HAVING HIGH STOKES SHIFT, ON THE BASIS OF BRIDGED BENZOPYRYLIUM SALTS” (DYOMICS GmbH, priority 2020, published 2023).
# Legend:
# [1] = UV-Vis absorption (absorption maximum, extinction coefficient); type: physicochemical
# Description: (§1) Depending on the basic structure and substitution, the absorption maxima lie in the entire range of visible light, with a focus at 500-530 nm. The compounds show a high Stokes shift in the range of 80 nm. The absorption is measured, for example, at 25° C. in aqueous or ethanolic solutions with an extinction of 1.0 using a Specord 205 from Analytik Jena, wherein the aqueous solutions are preferably phosphate-buffered salt solutions (PBS buffer; approx. 100 mM sodium chloride and 100 mM total phosphate) and have a pH of 7.5. For example, the emission is measured at 25° C. in dilute aqueous or ethanolic solutions with an extinction of 0.1 using a FP-6600 spectrofluorometer from Jasco, wherein the dilute aqueous solutions are preferably phosphate-buffered salt solutions (PBS buffer; about 100 mM sodium chloride and 100 mM total phosphate) and have a pH of 7.5.
# [2] = Fluorescence emission (emission maximum); type: physicochemical
# Description: as §1
SMILES,ε ([1]; UV-Vis in PBS),λmax ([1]; UV-Vis in PBS),ε ([1]; UV-Vis in ethanol),λmax ([1]; UV-Vis in ethanol),λem ([2]; in PBS),λem ([2]; in ethanol)
"CCN(CC)c1ccc2c(c1)OC1=CC(=O)CC(C)(C)C1=C2 [Compound 34, 6-(diethylamino)-1,1-dimethyl-2H-xanthene-3-one]",23000 L/mol/cm,450 nm,"24,800 l/mol*cm",440 nm,558 nm,540 nm
"CCN(CC)c1ccc2cc3c([o+]c2c1)C=C(/C=C/C=C1/N(CCCCCC(=O)O)c2ccc(S(=O)(=O)[O-])cc2C1(C)C)CC3(C)C [Compound 32, (2E)-1-(5-sarboxypentyl)-2-[(E)-3-[6-(diethylamino)-1,1-dimethyl-2H-xantheneium-3-yl]prop-2-enyliden]-3,3-dimethyl-indoline-5-sulfonate]",75000 L/mol/cm,755 nm,"143,600 l/mol*cm",770 nm,788 nm,795 nm
"CC1=CC(C)(C)N(CCCCCC(=O)O)c2cc3c(cc21)C=C1C(=C(S(=O)(=O)[O-])C(=O)CC1(C)C)O3.[Na+] [Compound 42, 1-(5-carboxypentyl)-2,2,4,7,7-pentamethyl-9-oxo-8H-chromeno[3,2-g]quinoline-10-sulfonate Sodium Salt]","28,000 l/mol*cm",487 nm,"30,000 l/mol*cm",473 nm,578 nm,559 nm
"CC1=CC(C)(C)N(CCCCCC(=O)O)c2cc3c(cc21)C=C1C(=CC(=O)CC1(C)C)O3 [Compound 41, 6-(2,2,4,7,7-pentamethyl-9-oxo-8H-chromeno[3,2-g]quinolin-1-yl)hexanoic Acid]","23,000 l/mol*cm",460 nm,"24,000 l/mol*cm",463 nm,575 nm,557 nm
"CCN(CC)c1ccc2c(c1)OC1=C/C(=C/C=C3/C(=O)N(CCCCCC(=O)O)C(=O)N(CCCS(=O)(=O)[O-])C3=O)CC(C)(C)C1=C2.[Na+] [Compound 33, 3-[(5Z)-3-(5-carboxypentyl)-5-[(2E)-2-[6-(diethylamino)-1,1-dimethyl-2H-xanthene-3-ylidene]ethylidene]-2,4,6-trioxo-hexahydropyrimidin-1-yl]propane-1-sulfonate Sodium Salt]",,,"67,000 l/mol*cm",683 nm,,719 nm
"CN(C1=Cc2[o+]c3cc(OCCCCCC(=O)O)c(S(=O)(=O)[O-])cc3cc2C(C)(C)C1)c1ccc(S(=O)(=O)[O-])cc1.[Na+] [Compound 19, 3-(5-carboxypentoxy)-8,8-dimethyl-6-(N-methyl-4-sulfonato-anilino)-7H-xanthene-10-ium-2-sulfonate Sodium Salt]",16500 L/mol/cm,460 nm,"18,000 l/mol*cm",465 nm,509 nm,522 nm
"CC1=CC(C)(C)N(CCCS(=O)(=O)[O-])c2cc3[o+]c4c(cc3cc21)C(C)(C)CC(NCCCCCC(=O)O)=C4 [Compound 22, 3-[9-(5-carboxypentylamino)-2,2,4,7,7-pentamethyl-8H-chromeno[3,2-g]quinolin-11-ium-1-yl]propane-1-sulfonate]",37500 L/mol/cm,516 nm,"39,000 l/mol*cm",531 nm,590 nm,589 nm
"CC1(C)CC(=O)C=C2Oc3cc(N(CCCCCC(=O)O)CCCS(=O)(=O)[O-])ccc3C=C21.[Na+] [Compound 37, 3-[5-carboxypentyl-(8,8-dimethyl-6-oxo-7H-xanthene-3-yl)amino]propane-1-sulfonate Sodium Salt]","26,000 l/mol*cm",454 nm,"27,000 l/mol*cm",439 nm,553 nm,538 nm
